Where “and” joins values, the source holds several entries; their conditions need not be identical. Equal values may be shown once.
Key:
[1] = test system: L. lactis NZ9000/pNZ-Pnis-mCherry^Lla; assay: Nisin sensor strain mCherry fluorescence assay; type: cell-based, Lactococcus lactis; settings: 96-well microtiter plate assay
Procedure: (B) A photo of the bacterial pellet taken after growth in GM17 medium containing 10 ng/ml nisin.
Black lines indicate absorbance at 214 nm in milli arbitrary units (mAU) and grey lines % of solution B in the elation buffer. Broken lines indicate the boundaries of the peak fractions collected for further analysis. (B) L. lactis NZ9000/pNZ-Pnis-mCherry^Lla was used to assay presence of nisin in different samples during purification of ammonium sulphate-precipitated supernatants of C. glutamicum CR099/pXMJ-nisZBTC^opt (SN: plain culture supernatant; precip: ammonium sulphate precipitated supernatant proteins; IEX: peak fraction of ion exchange chromatography; RP peak fraction of reverse phase chromatography. pos: 10 ng/ml nisin; +/−: activation by trypsin).
The sensitivity of the spot-on-lawn assay using C. glutamicum CR099 as an indicator strain is very low. […] The strain L. lactis NZ9000/pNZ-Pnis-mCherry^Lla contains the NisRK two-component system and harbours a pNZ-derives plasmid for expression the red-fluorescent protein mCherry from the Pnis promoter (FIG. 11A), which is activated by NisR in a strictly nisin-dependent manner. In this construct, the coding sequence of the mCherry protein is optimized for codon usage of L. lactis. The respective sensor strain results in reddish coloured bacteria after o/N growth in the presence of 10 ng mL^−1 (FIG. 11B). […]

C. glutamicum CR099 [2] = assay: Resistance of C. glutamicum CR099 to antimicrobial peptides, endpoint growth in 96-well microtiter plates; type: cell-based, Corynebacterium glutamicum
Procedure: Values are mean±standard deviation of n=4-7 independent experiments. (B) Growth of C. glutamicum CR099 in standard batch culture in 2xTY medium with 2% Glc in the presence (+PA-1) or absence (−PA-1) of 2.0 μg/mL pediocin. Values are mean±standard deviation of n=4 independent experiments. Growth rates were calculated during exponential growth phase. (C) Growth inhibition of L. monocytogenes EGDe::pIMK2 by supernatants of C. glutamicum CR099 in 2xTY medium with 2% Glc plus 2 μg/mL pure pediocin (+CR099). Supernatants were collected during the experiment shown in (B) at the indicated time-points. As controls, pediocin was incubated under the same conditions in sterile medium (−CR099). Values are OD600 of the indicator strain L. monocytogenes EGDe in a growth assay at the indicated dilutions of the samples and are mean±standard deviation of n=3 independent experiments. […]
The receptors for bacteriocins of the pediocin family on target organisms are the IIC and IID subunits of a sub-family of mannose-specific phosphotransferase systems (PTS^Man; PMID: 19477899). […] To corroborate this assumption, the resistance of C. glutamicum CR099 against different antimicrobial peptides was determined using an endpoint measurement of growth in 96-well microtiter plates (FIG. 2A).

C. glutamicum CR099 [3] = assay: Growth of C. glutamicum CR099 in standard batch culture with pediocin; type: cell-based, Corynebacterium glutamicum; settings: 2 μg mL^−1 pediocin, baffled Erlenmeyer flask, 2xTY with 2% Glc
Procedure: (§1) Values are mean±standard deviation of n=4-7 independent experiments. (B) Growth of C. glutamicum CR099 in standard batch culture in 2xTY medium with 2% Glc in the presence (+PA-1) or absence (−PA-1) of 2.0 μg/mL pediocin. Values are mean±standard deviation of n=4 independent experiments. Growth rates were calculated during exponential growth phase. (C) Growth inhibition of L. monocytogenes EGDe::pIMK2 by supernatants of C. glutamicum CR099 in 2xTY medium with 2% Glc plus 2 μg/mL pure pediocin (+CR099). Supernatants were collected during the experiment shown in (B) at the indicated time-points. As controls, pediocin was incubated under the same conditions in sterile medium (−CR099). Values are OD600 of the indicator strain L. monocytogenes EGDe in a growth assay at the indicated dilutions of the samples and are mean±standard deviation of n=3 independent experiments. In all graphs, the bottom and top lines indicate OD600 of the positive (i.e. complete inhibition of growth) or negative (i.e. in the absence of an antimicrobial peptide), respectively. The broken middle lines represent growth inhibition of 50%, i.e. the threshold to calculate bacteriocin units.
By contrast, C. glutamicum CR099 was able to grow in the presence of at least 12.5 μg mL^−1 pediocin PA-1.

[4] = test system: L. innocua LMG2785::pIMK2; assay: Microtiter plate growth inhibition assay, L. innocua indicator; type: cell-based, Listeria innocua; settings: serial 2-fold dilutions of pediocin standard
Text: (§2) (B) Growth inhibition of L. monocytogenes EGDe::pIMK2 by supernatants of P. acidilactici 347 (Paci) collected in early stationary growth phase at the indicated dilution. Values are mean±standard deviation of at least n=3 independent experiments per condition. Dilution series sterile H2O (A) or MRS medium (B) were used as negative controls. Hatched bars indicate growth of the indicator strain without addition of diluted supernatant or pediocin, i.e. maximum growth. The bottom and top lines indicate OD600 of the positive (i.e. complete inhibition of growth) or negative (i.e. in the absence of an antimicrobial peptide), respectively. The broken middle line represents growth inhibition of 50%, i.e. the threshold to calculate bacteriocin units.
2h after inoculation Glc (2% w/v) and IPTG (0.1 mM) were added to induce production of pediocin (B) Growth inhibition of L. innocua LMG2785::pIMK2 by different dilutions of supernatants of C. glutamicum CR099/pEKEx2-pedACD (pedACD) collected at the indicated timepoints during the growth experiment shown in (A). All values are mean±standard deviation of n=3 independent experiments. […]
(§3) To validate the assay, anti-microbial activity in supernatants of P. acidilactici 347, a natural producer of pediocin was measured following growth in MRS medium to early stationary growth phase (FIG. 1B). […]

[5] = test system: L. monocytogenes EGDe::pIMK2; assay: Microtiter plate growth inhibition assay, L. monocytogenes indicator; type: cell-based, Listeria monocytogenes; settings: serial 2-fold dilutions of pediocin standard
Text: as §2
Pediocin PA-1 is a bacteriocin with potent antimicrobial activity against a range of Gram-positive microorganisms including important human pathogens such as Listeria monocytogenes. As a first step towards recombinant production of pediocin PA-1, a growth-dependent assay was established using L. monocytogenes EGDe::pIMK2 or L. innocua LMG2785::pIMK2 as indicator strains, and commercially available, purified pediocin (FIG. 1A). […]
as §3

[6] = test system: L. monocytogenes EGDe::pIMK2; assay: Pediocin activity remaining in culture supernatant during C. glutamicum CR099 cultivation; type: cell-based, Listeria monocytogenes
Procedure: as §1
Additionally, activity of pediocin was measured in the culture supernatant at select timepoints during the cultivation. […] The observed reduction in activity was therefore considered to be related to adsorption of the positively charged pediocin to the negative surface of bacteria and, at later timepoints, to oxidative inactivation.

| Substance | limit of detection of the sensor strain for active nisin [1] | concentration above which growth of C. glutamicum CR099 is inhibited (C. glutamicum CR099 [2]; preliminary experiments) | effect on final optical density and growth rate (C. glutamicum CR099 [3]) | minimal concentration to completely inhibit growth of the indicator strain [4] | concentration in the presence of which C. glutamicum CR099 was able to grow (C. glutamicum CR099 [2]; 96-well microtiter plates, endpoint growth) | minimal concentration to completely inhibit growth of the indicator strain [5] | pediocin activity in culture supernatant, initial ([6]; 2 μg/mL pediocin in growing C. glutamicum CR099 culture, start) | pediocin activity after 24 hours in control incubation ([6]; 2xTY without bacteria, 24 hours) | pediocin activity in culture supernatant after slight initial reduction ([6]; growing C. glutamicum CR099 culture, stable for several hours) | pediocin activity in culture supernatant after 24 hours ([6]; in the presence of C. glutamicum CR099, 24 hours) |
| --- | --- | --- | --- | --- | --- | --- | --- | --- | --- | --- |
| nisin | 0.2 to 0.5 ng/mL and 0.25 to 0.5 ng/mL | > 100 ng/mL | – | – | – | – | – | – | – | – |
| pediocin PA-1 (KYYGNGVTCGKHSCSVDWGKATTCIINNGAMAWATGGHQGNHKC; listed as Pediococcus acidilactici) [commercially available, purified Class IIA bacteriocin] | – | – | did not affect final optical density and growth rate | 39 ng/mL | at least 12.5 μg mL^−1 | 39 ng/mL | 2560 BU mL^−1 | the same reduction was observed | 1280 BU mL^−1 | 160 BU mL^−1 |

From patent US20220348615A1, “PRODUCTION OF BACTERIOCINS” (priority 2021, published 2022)
